# Experimental data published in article doi:10.1101/2024.09.13.612887 (2024).
# Test system: F. ulcerans ZTP riboswitch ITC construct RNA (aptamer domain) (RNA, riboswitch) UAUCAGUUAUAUGACUGACGGAACGUGGAAUUAACCACAUGAAGUAUAACGAUGACAAUGCCGACCGUCUGGGCG
# Experiment: ITC
# Conditions: 150 mM KCl, 10 mM MgCl2; 50 mM HEPES-KOH pH 7.4, 37 °C; table value, text b16 says KD >30 μM
row,Compound,KD [µM]
1,COc1ccncc1-n1cnc(C(N)=O)c1N,4.16 ± 0.68

# Same assay, conditions: 150 mM KCl, 10 mM MgCl2; 50 mM HEPES-KOH pH 7.4, up to 3% DMSO, 37 °C
row,Compound,KD [µM]
1,CNc1ccc(-n2cnc(C(N)=O)c2N)cn1,2.40 ± 0.36
2,COc1ccc(-n2cnc(C(N)=O)c2N)cn1,2.45 ± 0.44
3,NC(=O)c1cccc(-n2cnc(C(N)=O)c2N)c1,3.52 ± 0.60
4,NC(=O)c1ncn(-c2ccc(-c3cnc[nH]3)cc2)c1N,1.46 ± 0.21
5,NC(=O)c1ncn(-c2ccc(-c3ncc[nH]3)nc2)c1N,3.18 ± 0.44
6,NC(=O)c1ncn(-c2ccc(Cl)nc2)c1N,2.19 ± 1.4
7,NC(=O)c1ncn(-c2ccc(NCc3ccccc3)nc2)c1N,13.8 ± 1.5
8,NC(=O)c1ncn(-c2ccc3[nH]ccc3c2)c1N,3.20 ± 1.3
9,NC(=O)c1ncn(-c2ccc3cc[nH]c3c2)c1N,4.99 ± 0.64
10,NC(=O)c1ncn(-c2ccc3cccnc3c2)c1N,1.36 ± 0.17
11,NC(=O)c1ncn(-c2ccc3ncccc3c2)c1N,1.28 ± 0.26
12,NC(=O)c1ncn(-c2cccc(O)c2)c1N,2.47 ± 0.37
13,NC(=O)c1ncn(-c2ccccc2)c1N,1.84 ± 0.41
14,NC(=O)c1ncn(-c2cnc3cccnc3c2)c1N,0.864 ± 0.21
15,NC(=O)c1ncn(-c2cnc3ncccc3c2)c1N,0.778 ± 0.28
16,NC(=O)c1ncn(-c2cncnc2)c1N,1.22 ± 0.45
17,NC(=O)c1ncn(Cc2ccncc2)c1N,15.0 ± 7.1

# Same assay, conditions: 150 mM KCl, 10 mM MgCl2; 50 mM HEPES-KOH pH 7.4, up to 3% DMSO, 37 °C; N.B. (>30 μM or not measurable)
row,Compound,KD [µM]
1,Cc1ncccc1-n1cnc(C(N)=O)c1N,> 30
2,NC(=O)c1cn(-c2ccncc2)cn1,> 30
3,NC(=O)c1ncn(-c2cccc3cccnc23)c1N,> 30
4,NC(=O)c1ncn(Cc2ccccc2)c1N,> 30
5,NC(=O)c1ncn(Cc2cnccn2)c1N,> 30
6,NC(=O)c1ncn([C@@H]2CCCNC2)c1N,> 30
7,NC(=O)c1ncn([C@H]2CCCNC2)c1N,> 30

# Same assay, conditions: 150 mM KCl, 10 mM MgCl2; 50 mM HEPES-KOH pH 7.4, up to 3% DMSO, 37 °C; text prints 13.7 ± 7.8
row,Compound,KD [µM]
1,NC(=O)c1nnn(-c2cccnc2)c1N,13.5 ± 7.85

# Test system: F. ulcerans ZTP riboswitch SPR construct RNA (RNA, riboswitch) UAUCAGUUAUAUGACUGACGGAACGUGGAAUUAACCACAUGAAGUAUAACGAUGACAAUGCCGACCGUCUGGGCGUUCAUUAGCGGUAUUCCGGAAC …
# Experiment: SPR
# Conditions: 150 mM KCl, 10 mM MgCl2; 50 mM HEPES-KOH pH 7.4, 0.005% Tween-20, 5% DMSO; apparent, no saturation, exceeds 1:1 Rmax
row,Compound,KD
1,NC(=O)c1ncn(-c2ccc(-c3cnc[nH]3)cc2)c1N,~ 900 nM

# Test system: S. ondontolytica ZTP riboswitch used for crystallography (64-nt) (RNA, riboswitch, 5'-hydroxyl (hammerhead-cleaved, lacks 5'-phosphate)) GGGUCGUGACUGGCGAACAGGUGGGAAACCACCGGGGAGCGACCCUUGCCGCCCGCCUGGGCAA
# Experiment: X-ray crystallography
# Conditions: Mg2+; co-crystal structure, 2.2 Å, partially refined
row,binding,Compound
1,yes,NC(=O)c1ncn(-c2cnc3ncccc3c2)c1N

# Same assay, conditions: Mg2+; co-crystal structure, 2.4 Å
row,binding,Compound
1,yes,NC(=O)c1ncn(-c2cccnc2)c1N
